Measurements published in patent US20140343049A1, “DIHYDROFURAN DERIVATIVES AS INSECTICIDAL COMPOUNDS” (SYNGENTA PARTICIPATIONS AG, priority 2011, published 2014).

Experiments:
Format in all cases: in vivo
[1] = system: Diabrotica balteata (corn root worm); test: Diabrotica balteata L2 larvae test on artificial diet; conditions: 120 h, 200 ppm (concentration in well 18 ppm), 5 days, larval mortality and growth regulation
Procedure: (§1) A 24-well microtiter plate (MTP) with artificial diet was treated with test solutions at an application rate of 200 ppm (concentration in well 18 ppm) by pipetting. After drying, the MTPs were infested with L2 larvae (6-10 per well). After an incubation period of 5 days, samples were checked for larval mortality and growth regulation.
as §1, with “12.5” for “200”, “MTP's” for “MTPs”

[2] = system: Plutella xylostella (diamond back moth); test: Plutella xylostella L2 larvae test on artificial diet; conditions: 144 h, 200 ppm (concentration in well 18 ppm), 6 days, larval mortality and growth regulation
Procedure: as §1, with “24-well” for “A 24-well”, “(7-12” for “(6-10”, “6” for “5”

[3] = system: Tetranychus urticae (two-spotted spider mite); test: Tetranychus urticae bean leaf disc spray test; conditions: foliar, 192 h, bean leaf discs sprayed at 200 ppm, mixed ages, egg, larval and adult mortality 8 days later
Source text: Bean leaf discs on agar in 24-well microtiter plates were sprayed with test solutions at an application rate of 200 ppm. After drying, the leaf discs are infested with mite populations of mixed ages. 8 days later, discs are checked for egg mortality, larval mortality, and adult mortality. […]

[4] = system: Thrips tabaci (onion thrips); test: Thrips tabaci sunflower leaf disc spray test; conditions: foliar, 168 h, sunflower leaf discs sprayed at 200 ppm, mixed ages, mortality after 7 days
Procedure: Sunflower leaf discs were placed on agar in a 24-well microtiter plate and sprayed with test solutions at an application rate of 200 ppm. […] After drying, the leaf discs were infested with a thrip population of mixed ages. After an incubation period of 7 days, samples were checked for mortality.

[5] = system: Spodoptera littoralis (Egyptian cotton leafworm); test: Spodoptera littoralis cotton leaf disc spray test; conditions: foliar, 72 h, cotton leaf discs sprayed at 200 ppm, 5 L1 larvae, mortality, feeding behavior, growth regulation 3 days after treatment
Source text: Cotton leaf discs were placed on agar in a 24-well microtiter plate and sprayed with test solutions at an application rate of 200 ppm. After drying, the leaf discs were infested with 5 L1 larvae. The samples were checked for mortality, feeding behavior, and growth regulation 3 days after treatment (DAT).

[6] = system: Heliothis virescens (tobacco budworm); test: Heliothis virescens egg test on artificial diet; conditions: 96 h, 200 ppm (concentration in well 18 ppm), eggs 0-24 h old, 4 days, egg mortality, larval mortality, growth regulation
Procedure: Eggs (0-24 h old) were placed in 24-well microtiter plate on artificial diet and treated with test solutions at an application rate of 200 ppm (concentration in well 18 ppm) by pipetting. After an incubation period of 4 days, samples were checked for egg mortality, larval mortality, and growth regulation.

Measured: pest or weed control at 200 ppm

C#CC1(NC(=O)c2ccc(C3=CC(c4cc(Cl)cc(Cl)c4)(C(F)(F)F)OC3)cc2C)CCCCC1 (stereo not shown) [Compound A30]
≥ 80%: [1] | [2] | [3] | [4]

Cc1cc(C2=CC(c3cc(Cl)cc(Cl)c3)(C(F)(F)F)OC2)ccc1C(=O)NCCC1OCCO1 (stereo not shown) [Compound A31]
not listed: [6]
≥ 80%: all other assays above

Cc1cc(C2=CC(c3cc(Cl)cc(Cl)c3)(C(F)(F)F)OC2)ccc1C(=O)Nc1cccc(F)c1 (stereo not shown) [Compound A59]
≥ 80%: [5] | [2] | [4] | [6]

Cc1cc(C2=CC(c3cc(Cl)cc(Cl)c3)(C(F)(F)F)OC2)ccc1C(=O)NCC1CCS1(=O)=O (stereo not shown) [Compound A81]
not listed: [4]
≥ 80%: all other assays above

CCNC(=O)c1ccc(C2=CC(c3cc(Cl)cc(Cl)c3)(C(F)(F)F)OC2)nc1C (stereo not shown) [Compound C2]
not listed: [6]
≥ 80%: all other assays above

COCC(C)NC(=O)c1ccc(C2=CC(c3cc(Cl)cc(Cl)c3)(C(F)(F)F)OC2)nc1C (stereo not shown) [Compound C4]
≥ 80%: [5] | [4]

CCC(C)NC(=O)c1ccc(C2=CC(c3cc(Cl)cc(Cl)c3)(C(F)(F)F)OC2)nc1C (stereo not shown) [Compound C7]
not listed: [3]
≥ 80%: all other assays above

Cc1nc(C2=CC(c3cc(Cl)cc(Cl)c3)(C(F)(F)F)OC2)ccc1C(=O)NCc1ccc(Cl)nc1 (stereo not shown) [Compound C14]
not listed: [4]
≥ 80%: all other assays above

Cc1nc(C2=CC(c3cc(Cl)cc(Cl)c3)(C(F)(F)F)OC2)ccc1C(=O)NC1(C)CSC1 (stereo not shown) [Compound C17]
not listed: [6]
≥ 80%: all other assays above

Cc1nc(C2=CC(c3cc(Cl)cc(Cl)c3)(C(F)(F)F)OC2)ccc1C(=O)NC1CSC1 (stereo not shown) [Compound C19]
not listed: [6]
≥ 80%: all other assays above

Cc1nc(C2=CC(c3cc(Cl)cc(Cl)c3)(C(F)(F)F)OC2)ccc1C(=O)NC1CC2CCC1C2 (stereo not shown) [Compound C20]
not listed: [3]
≥ 80%: all other assays above

Cc1nc(C2=CC(c3cc(Cl)cc(Cl)c3)(C(F)(F)F)OC2)ccc1C(=O)NC1CCC1 (stereo not shown) [Compound C21]
not listed: [3]
≥ 80%: all other assays above

Cc1cc(C2=CC(c3cc(Cl)cc(Cl)c3)(C(F)(F)F)OC2)ccc1C(=O)NC1CC2CCC1C2 (stereo not shown) [Compound D22]
≥ 80%: [1] | [2] | [4]

Cc1cc(C2=CC(c3cc(Cl)cc(Cl)c3)(C(F)(F)F)OC2=O)ccc1C(=O)NCC(=O)NCC(F)(F)F (stereo not shown) [Compound E5]
not listed: [4]
≥ 80%: all other assays above

Cc1cc(C2=CC(c3cc(Cl)cc(Cl)c3)(C(F)(F)F)OC2=O)ccc1C(=O)NC1CCC1 (stereo not shown) [Compound E18]
≥ 80%: [4]
